From BindingDB's records for doi:10.1074/jbc.271.42.26315 (Bayer, 1996)
Values joined by “and” are separate entries in the source; they are usually repeats but may differ in a detail not shown here. Identical values can stand only once. Peptide text beside a SMILES is read from it.

Key:
[1] = target: T1, Neuropeptide Y receptor type 5 (Homo sapiens, UniProt Q15761)
T1 sequence (Q15761 whole entry): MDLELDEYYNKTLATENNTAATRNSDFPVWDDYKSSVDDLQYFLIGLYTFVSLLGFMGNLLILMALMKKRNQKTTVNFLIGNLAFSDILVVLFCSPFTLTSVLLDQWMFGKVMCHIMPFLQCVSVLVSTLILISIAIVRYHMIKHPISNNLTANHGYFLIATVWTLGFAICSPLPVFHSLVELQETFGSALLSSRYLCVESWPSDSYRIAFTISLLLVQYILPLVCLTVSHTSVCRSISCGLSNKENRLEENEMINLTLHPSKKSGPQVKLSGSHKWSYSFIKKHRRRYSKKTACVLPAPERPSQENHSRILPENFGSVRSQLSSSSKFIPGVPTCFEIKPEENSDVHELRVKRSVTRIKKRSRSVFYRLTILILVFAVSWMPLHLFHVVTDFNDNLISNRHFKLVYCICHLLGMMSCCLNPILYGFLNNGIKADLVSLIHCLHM

[2] = target: T2, Neuropeptide Y receptor type 5 (Rattus norvegicus, UniProt Q63634)
T2 sequence (Q63634 whole entry): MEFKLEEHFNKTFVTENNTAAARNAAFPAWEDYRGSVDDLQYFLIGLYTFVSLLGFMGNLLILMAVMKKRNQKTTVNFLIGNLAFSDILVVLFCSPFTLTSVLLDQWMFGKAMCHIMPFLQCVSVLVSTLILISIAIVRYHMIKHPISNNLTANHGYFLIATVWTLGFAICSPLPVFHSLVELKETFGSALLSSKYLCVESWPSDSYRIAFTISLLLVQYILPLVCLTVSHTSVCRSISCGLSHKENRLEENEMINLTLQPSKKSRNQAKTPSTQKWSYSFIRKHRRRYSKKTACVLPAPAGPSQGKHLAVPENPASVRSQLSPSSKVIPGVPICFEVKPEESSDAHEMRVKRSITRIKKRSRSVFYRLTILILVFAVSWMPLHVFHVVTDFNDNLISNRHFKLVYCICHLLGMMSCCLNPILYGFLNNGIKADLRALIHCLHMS

With `CC[C@H](C)[C@H](NC(=O)[C@H](Cc1ccc(O)cc1)NC(=O)[C@H](CCCNC(=N)N)NC(=O)[C@H](CCCNC(=N)N)NC(=O)[C@H](CC(C)C)NC(=O)[C@H](CCC(N)=O)NC(=O)[C@@H](NC(=O)[C@H](CCC(=O)O)NC(=O)[C@H](Cc1ccc(O)cc1)NC(=O)[C@H](CCC(N)=O)NC(=O)[C@H](C)NC(=O)[C@H](CCCNC(=N)N)NC(=O)[C@H](CCC(N)=O)NC(=O)[C@H](CCC(=O)O)NC(=O)[C@H](Cc1c[nH]cn1)NC(=O)[C@@H](NC(=O)[C@H](C)NC(=O)[C@H](Cc1ccc(O)cc1)NC(=O)[C@H](CC(=O)O)NC(=O)CNC(=O)[C@@H]1CCCN1C(=O)[C@H](Cc1ccc(O)cc1)NC(=O)[C@H](CCSC)NC(=O)[C@@H]1CCCN1C(=O)[C@H](CCC(=O)O)NC(=O)[C@H](CC(C)C)NC(=O)[C@@H]1CCCN1C(=O)[C@H](C)N)[C@@H](C)O)[C@@H](C)O)C(=O)N[C@@H](CC(N)=O)C(=O)N[C@H](C(=O)N[C@@H](CC(C)C)C(=O)N[C@H](C(=O)N[C@@H](CCCNC(=N)N)C(=O)N1CCC[C@H]1C(=O)N[C@@H](CCCNC(=N)N)C(=O)N[C@@H](Cc1ccc(O)cc1)C(N)=O)[C@@H](C)O)[C@@H](C)O` [NSC_41735] as the compound, how does the Ki [1] read?
Its Ki is 436 nM.

What about the Ki [2] of the same compound?
The Ki was 62 nM and 296 nM.

Which results are given for `CC[C@H](C)[C@H](NC(=O)[C@H](Cc1ccc(O)cc1)NC(=O)[C@H](Cc1cnc[nH]1)NC(=O)[C@H](CCCN=C(N)N)NC(=O)[C@H](CC(C)C)NC(=O)[C@H](C)NC(=O)[C@@H](N)CO)C(=O)N[C@@H](CC(N)=O)C(=O)N[C@@H](CC(C)C)C(=O)N[C@H](C(=O)N[C@H](C(=O)N[C@@H](CCCN=C(N)N)C(=O)N[C@@H](CCC(N)=O)C(=O)N[C@@H](CCCN=C(N)N)C(=O)N[C@@H](Cc1ccc(O)cc1)C(N)=O)[C@@H](C)O)[C@@H](C)CC` [NPY22-36, rat, human]?
Ki [1]: 1000 nM; Ki [2]: 1000 nM

`CC(C)C[C@H](NC(=O)[C@H](CO)NC(=O)[C@H](C)NC(=O)[C@H](Cc1ccc(O)cc1)NC(=O)[C@H](Cc1ccc(O)cc1)NC(=O)[C@H](CCCNC(=N)N)NC(=O)[C@H](CO)NC(=O)[C@H](CC(C)C)NC(=O)[C@H](CCC(=O)O)NC(=O)[C@H](CCC(=O)O)NC(=O)[C@@H]1CCCN1C(=O)[C@@H](N)CO)C(=O)N[C@@H](CCCNC(=N)N)C(=O)N[C@@H](Cc1c[nH]cn1)C(=O)N[C@@H](Cc1ccc(O)cc1)C(=O)N[C@@H](CC(C)C)C(=O)N[C@@H](CC(N)=O)C(=O)N[C@@H](CC(C)C)C(=O)N[C@H](C(=O)N[C@H](C(=O)N[C@@H](CCCNC(=N)N)C(=O)N[C@@H](CCC(N)=O)C(=O)N[C@@H](CCCNC(=N)N)C(=O)N[C@@H](Cc1ccc(O)cc1)C(N)=O)[C@@H](C)O)C(C)C` [PYY 3-36, rat] (H-SPEELSRYYASLRHYLNLVTRQRY-NH2) was tested. Which Ki [1] did it give?
Its Ki is 10 nM.

For `N=C(N)NCCCC(NC(=O)C(c1ccccc1)c1ccccc1)C(=O)NCc1ccc(O)cc1` (stereo unspecified) [NSC_5311023], which Ki [2] is on record?
The Ki was 1000 nM.
